Experimental data reported in patent US10865203B2, “Ligands selective to alpha 6 subunit-containing GABAA receptors and their methods of use” (UWM Research Foundation, Inc., priority 2015, dated 2020).
Entries after “also recorded” stand apart in the source; their conditions may differ. Read-outs that look alike come from different tables or passages of the source.

Key:
[1] = tested on: α1,4,6β3δ receptors; experiment: Electrophysiology in Xenopus oocytes, delta-containing receptors; assay type: cell-based, rat
Procedure: Mature female Xenopus laevis (Nasco, Fort Atkinson, Wis., USA) were anaesthetized in a bath of ice-cold 0.17% Tricain (Ethyl-m-aminobenzoat, Sigma-Aldrich, St. Louis, Mo., USA) before decapitation and transfer of the frog's ovary to ND96 medium (96 mM NaCl, 2 mM KCl, 1 mM MgCl2, 5 mM HEPES; pH 7.5). Following incubation in 1 mg/mL collagenase (Sigma-Aldrich, St. Louis, Mo., USA) for 30 min, stage 5 to 6 oocytes were singled out of the ovary and defolliculated using a platinum wire loop. Oocytes were stored and incubated at 18° C. in NDE medium (96 mM NaCl, 2 mM KCl, 1 mM MgCl2, 5 mM HEPES, 1.8 mM CaCl2; pH 7.5) that was supplemented with 100 U per mL-1 penicillin, 100 μg per mL-1 streptomycin and 2.5 mM pyruvate. Oocytes were injected with an aqueous solution of mRNA. A total of 2.5 ng of mRNA per oocyte was injected. Subunit ratio was 1:1:5 for αxβγ2 (x=1, 2, 3, 5) and 3:1:5 for α4/6β3γ2 and αβδ receptors. Injected oocytes were incubated for at least 36 h before electrophysiological recordings. Oocytes were placed on a nylon-grid in a bath of NDE medium. For current measurements, the oocytes were impaled with two microelectrodes (2-3MΩ), which were filled with 2 M KCl. The oocytes were constantly washed by a flow of 6 mL per min-1 NDE that could be switched to NDE containing GABA and/or drugs. […] All recordings were performed at room temperature at a holding potential of −60 mV using a Warner OC-725C TEV (Warner Instrument, Hamden, Conn., USA) or a Dagan CA-1B Oocyte Clamp or a Dagan TEV-200A TEV (Dagan Corporation, Mineapolis, Minn., USA). Data were digitized using a Digidata 1322A or 1550 data acquisition system (Axon Instruments, Union City, Calif., USA), recorded using Clampex 10.5 software (Molecular Devices, Sunnyvale, Calif., USA), and analyzed using Clampfit 10.5 and GraphPad Prism 6.0 (La Jolla, Calif., USA) software. Concentration-response data were fitted using the Hill equation. Data are given as mean±SEM from at least three oocytes of two batches.
For selected test compounds full dose response curves were recorded in α1-6β3γ2 receptors. For selected compounds, dose response curves in additional receptor subtypes (α1, 4, 6β3δ, α6β1, 2γ2, α1-6β3) were also obtained. For a wider panel of compounds, a two point screening pharmacology was obtained at 1 and 10 μM compound concentrations.

[2] = tested on: METH-impaired PPI in C57/B6 mice; experiment: PPI test, methamphetamine-impaired prepulse inhibition; assay type: in vivo, mouse; conditions: for rescue of METH-impaired PPI: mice, compound 10 mg/kg i.p. 15 min before METH 2 mg/kg i.p.
Procedure: All animal experiments conducted at NTU were approved by the Institutional Animal Care and Use Committee of College of Medicine, National Taiwan University. C57/B6 (8-10 weeks) mice were used for the PPI test and Wistar rats (8-9 weeks) were used in the migraine model. Animals were housed in an animal room with a 12-h light/12-h dark cycle and free access to food and water.
The PPI test was conducted with a PPI apparatus (SR-LAB, San Diego Instruments, San Diego, Calif.) consisting of a startle chamber equipped with various programming acoustic stimulations. After acclimation, the mouse was gently placed in the startle chamber for a 4 min acclimation period with a background noise of 65 dB, which continued throughout the whole PPI test session. One PPI test session consisted of 4 types of startle trials, including the trial with the startle pulse (115 dB) alone (PULSEALONE; 115 dB, 20 ms), two trials with the startle pulse paired with 71 and 77 dB prepulses, respectively (PREPULSE+PULSE; 71 dB+115 dB and 77 dB+115 dB), and the trial without stimulus (NOSTIM; background 65 dB only). A test session started and ended, respectively, with four NOSTIM trials and four PULSEALONE trials. In between, each of the four types of trials was presented 14 times randomly, that is, 56 trials were given in a test session. The intertrial interval was given randomly from 5 to 20 s. In the PREPULSE+PULSE trial, a 71 or 77 dB prepulse was given 120 ms before the 115 dBpulse. The magnitude of PPI (PPI %) was determined, after summarizing the startle responses in PULSEALONE and PREPULSE+PULSE trials, according to the equation (PULSEALON−PREPULSE+PULSE)/PULSEALONE×100%. The tested compound or vehicle was given to the animal for 15 min, followed by methamphetamine (2 mg/kg). The PPI test was conducted 10 min after injection of methamphetamine. Data were expressed as the mean±S.E.M. Statistical comparisons among groups were analyzed by ANOVA with Tukey post hoc test, and differences between groups were analyzed by Student's t-test. Two-way ANOVA with Bonferroni's post hoc test was used to analyze differences in the time courses of locomotor activity among groups. Differences were considered significant if P<0.05.
Methamphetamine and apomorphine were dissolved in normal saline for i.p. And s.c. Injections, respectively. Tested compounds and haloperidol, when given by i.p. Injection, were dissolved in a vehicle containing 20% dmso, 20% Cremophor® el (polyoxyethylene castor, sigma-aldrich) and 60% normal saline. Furosemide was dissolved (20 nmole/μL) in dimethylsulfoxide for intra-cerebellar microinjection the i.p. or s.c. Injection volume was 10 mL/kg.

Structure (SMILES): COc1ccc(-n2nc3c4ccc(OC)cc4[nH]cc-3c2=O)cc1 [Compound 6, 7-Methoxy-2-(4-methoxyphenyl)-2,5-dihydro-3H-pyrazolo[4,3-c]quinolin-3-one]
- α6 preference among α1,4,6β3δ receptors [1]: α6 preference
- α6 preference among α1,4,6β3δ receptors ([1]; listed as compound 6): preferentially modulate the α6β3δ receptor
- effect of intra-cerebellar furosemide on the rescue of PPI ([2]; furosemide 10 nmol intra-cerebellar microinjection): prevented
- rescue of METH-impaired PPI [2]: effectively rescued
- rescue of METH-impaired PPI ([2]; listed as C6): significantly rescued
- rescue of METH-impaired PPI ([2]; listed as compound 6): effective; also recorded: significantly rescued

Structure (SMILES): [2H]C([2H])([2H])Oc1ccc(-n2nc3c4ccc(OC)cc4[nH]cc-3c2=O)cc1 [DK-I-56-1, 7-Methoxy-2-(4-methoxy-d3-phenyl)-2,5-dihydro-3H-pyrazolo[4,3-c]quinolin-3-one]
- rescue of METH-impaired PPI [2]: effective

Structure (SMILES): COc1cccc(-n2nc3c4cc(Cl)ccc4[nH]cc-3c2=O)c1 [LAU 159, 8-Chloro-2-(3-methoxyphenyl)-2,5-dihydro-3H-pyrazolo[4,3-c]quinolin-3-one]
- α6 preference among α1,4,6β3δ receptors [1]: preferentially modulate the α6β3δ receptor; also recorded: α6 preference
- rescue of METH-impaired PPI [2]: effective; also recorded: comparable rescue effect as Compound 6

Structure (SMILES): COc1ccc(-n2nc3c4ccc(Br)cc4[nH]cc-3c2=O)cc1 [LAU 463, 7-Bromo-2-(4-methoxyphenyl)-2,5-dihydro-3H-pyrazolo[4,3-c]quinolin-3-one]
- α6 preference among α1,4,6β3δ receptors [1]: α6 preference
- rescue of METH-impaired PPI [2]: effective; also recorded: comparable rescue effect as Compound 6
